In one assay the target is Trypsin (Homo sapiens, UniProt P07477+P07478+P35030). The assay is described as follows: Inhibitory activity against human trypsin (using Chromozym TH as the substrate). In kind it is protein assay.
The next assay addresses Prothrombin (Homo sapiens, UniProt P00734). Put plainly: Inhibitory activity against human thrombin (using Chromozym TH as the substrate).

pKi: −log10 of the molar value.

For orientation: Ki means the equilibrium dissociation constant of an inhibitor or competing ligand from its target. The term pKi denotes the Ki on a negative log10 scale, so that one unit is a factor of ten. High values mean a small Ki, low ones a large Ki.

For the compound `COC(=N)NS(=O)(=O)c1cccc2c(N(C)C)cccc12`, on Trypsin, the Ki is reported as 1375 nM. Also, the pKi on Prothrombin is 6.86.

The compound `Cc1ccc(S(=O)(=O)NC(=O)N[C@@H](Cc2ccccc2)C(=O)N2CCCC2C(=O)Nc2ccc(S(=O)(=O)NN=C(N)N)cc2)cc1` (stereo partly specified) displayed a Ki at Trypsin of 1450 nM. In addition, the pKi at Prothrombin was 8.00.

For the compound `COC(=N)NS(=O)(=O)c1ccc(NC(=O)C2CCCN2C(=O)[C@H](Cc2ccccc2)NC(=O)OCc2ccccc2)cc1` (stereo partly specified), the Ki on Trypsin came to 1435 nM. This compound gave a pKi at Prothrombin of 7.80.

With `N=C(N)NNS(=O)(=O)c1ccc2ccccc2c1`, the Ki on Trypsin was determined as 1285 nM. The pKi at Prothrombin was 6.89.

At Trypsin, `COC(=N)NS(=O)(=O)c1ccc(I)cc1` gave a Ki of 1415 nM. At Prothrombin, this compound gave a pKi of 6.61.

As to `COC(=N)NS(=O)(=O)c1ccc([N+](=O)[O-])cc1`, on Trypsin, the Ki is given as 1235 nM. Moreover, the pKi on Prothrombin is 6.72.

`N=C(N)NS(=O)(=O)c1cc(Cl)cc(Cl)c1O` came in with a Ki at Trypsin of 1420 nM. The compound further had a pKi on Prothrombin of 6.82.

With `Cc1ccc(S(=O)(=O)NC(=O)N2CCC[C@H]2C(=O)NCC(=O)Nc2ccc(S(=O)(=O)NN=C(N)N)cc2)cc1`, the Ki on Trypsin is recorded as 1560 nM. In addition, the pKi at Prothrombin is 7.82.

For `N=C(N)NNS(=O)(=O)c1ccc([N+](=O)[O-])cc1`, the Ki on Trypsin is listed as 990 nM. In addition, at Prothrombin, the pKi is 6.78.

`COC(=N)NS(=O)(=O)c1ccc(OC)c(N)c1`: on Trypsin, the Ki was found to be 1235 nM. The pKi on Prothrombin was 7.02.

Compound `Cc1cc(C)c(S(=O)(=O)N=C(N)N)c(C)c1` gave a Ki at Trypsin of 1450 nM. The pKi at Prothrombin was 6.59.

As for `COC(=N)NS(=O)(=O)c1ccc(C(=O)O)cc1`, the Ki at Trypsin came out at 1340 nM. The same compound gave a pKi at Prothrombin of 6.88.

In turn, `N=C(N)NNS(=O)(=O)c1cccc(C(=O)O)c1` showed a Ki at Trypsin of 1520 nM. On Prothrombin, the pKi is 6.95.

Compound `N=C(N)NS(=O)(=O)c1ccc(NC(=O)C2CCCN2C(=O)[C@H](Cc2ccccc2)NC(=O)OCc2ccccc2)cc1` (stereo partly specified) displayed a Ki at Trypsin of 1360 nM. This compound also showed a pKi at Prothrombin of 7.89.

In the case of `COC(=N)NS(=O)(=O)C(F)(F)C(F)(F)C(F)(F)C(F)(F)C(F)(F)C(F)(F)C(F)(F)C(F)(F)F`, the Ki on Trypsin came to 2135 nM. In addition, the pKi on Prothrombin is 6.39.

As to `N=C(N)NS(=O)(=O)c1ccc(N)cc1` [SULFAGUANIDINE], on Trypsin, the Ki came to 1350 nM. The compound further showed a pKi at Prothrombin of 7.02.

On Trypsin, `N=C(N)NS(=O)(=O)C(F)(F)C(F)(F)C(F)(F)C(F)(F)F` showed a Ki of 2100 nM. Further, the pKi on Prothrombin was 6.28.

On to `N=C(N)NS(=O)(=O)c1c(F)c(F)c(F)c(F)c1F`, for which the Ki at Trypsin was 1350 nM. Moreover, the pKi at Prothrombin is 6.84.

For the compound `N=C(N)NNS(=O)(=O)c1cccc([N+](=O)[O-])c1`, the Ki on Trypsin was found to be 1235 nM. The compound further had a pKi at Prothrombin of 6.77.

For the compound `COC(=N)NS(=O)(=O)c1c(Br)c(Br)c(Br)c(Br)c1C(=O)O`, the Ki at Trypsin is on record as 1300 nM. Besides, the pKi at Prothrombin is 6.62.

`COC(=N)NS(=O)(=O)C(F)(F)F` came in with a Ki on Trypsin of 1450 nM. On Prothrombin, this compound showed a pKi of 6.05.

As to `COC(=N)NS(=O)(=O)c1ccccc1[N+](=O)[O-]`, the Ki on Trypsin turned out to be 2340 nM. Moreover, the pKi at Prothrombin was 6.45.

`COC(=N)NS(=O)(=O)c1cccc(N)c1` returned an inhibition constant (Ki) on Trypsin of 1370 nM. Moreover, the pKi on Prothrombin is 7.00.

In turn, `N=C(N)NS(=O)(=O)c1cccc([N+](=O)[O-])c1` displayed a Ki at Trypsin of 1100 nM. The pKi on Prothrombin is 6.72.

As for `COC(=N)NS(=O)(=O)c1c(F)c(F)c(F)c(F)c1F`, the Ki on Trypsin worked out at 1425 nM. In addition, on Prothrombin, the pKi was 6.82.

For the compound `Cc1ccc(S(=O)(=O)NC(=O)N[C@H](Cc2ccccc2)C(=O)Nc2ccc(S(=O)(=O)N=C(N)N)cc2)cc1`, the Ki on Trypsin is given as 1250 nM. The compound further gave a pKi on Prothrombin of 7.37.

The compound `COC(=N)NS(=O)(=O)Cc1ccccc1` showed a Ki at Trypsin of 1900 nM. This compound showed a negative logarithm of the Ki (pKi) on Prothrombin of 6.35.

On to `N=C(N)NNS(=O)(=O)c1ccc(NC(=O)[C@@H](Cc2ccccc2)NC(=O)OCc2ccccc2)cc1`, for which, at Trypsin, the Ki worked out at 1315 nM. For the same compound, the pKi on Prothrombin is 7.30.

Regarding `COC(=N)NS(=O)(=O)c1ccc(NC(=O)[C@@H](Cc2ccccc2)NC(=O)OCc2ccccc2)cc1`, the Ki at Trypsin came out at 1425 nM. In addition, the pKi at Prothrombin is 7.21.

As to `N=C(N)NS(=O)(=O)c1ccc(C(=O)O)cc1`, the Ki at Trypsin was found to be 1235 nM. The pKi at Prothrombin is 6.98.

For the compound `Cc1ccc(S(=O)(=O)NC(=O)NCCC(=O)N[C@@H](Cc2c[nH]cn2)C(=O)Nc2ccc(S(=O)(=O)N=C(N)N)cc2)cc1`, at Trypsin, the Ki was 1350 nM. For the same compound, the pKi on Prothrombin was 7.82.

`N=C(N)NS(=O)(=O)C(F)(F)C(F)(F)C(F)(F)C(F)(F)C(F)(F)C(F)(F)C(F)(F)C(F)(F)F`: at Trypsin, the Ki stood at 1950 nM. In addition, the pKi at Prothrombin is 6.44.

In turn, `N=C(N)NS(=O)(=O)c1cccc2ccccc12` showed a Ki at Trypsin of 1230 nM. At Prothrombin, the pKi was 6.87.

The compound `COC(=N)NS(=O)(=O)c1cccc2ccccc12` showed a Ki on Trypsin of 1425 nM. This compound showed a pKi on Prothrombin of 6.81.

On to `N=C(N)NNS(=O)(=O)c1ccc(I)cc1`, for which the inhibitory constant (Ki) on Trypsin was found to be 1300 nM. On Prothrombin, this compound showed a pKi of 6.75.

As for `CN(C)c1cccc2c(S(=O)(=O)N=C(N)N)cccc12`, at Trypsin, the inhibitory constant (Ki) turned out to be 1150 nM. In addition, the pKi on Prothrombin was 6.92.

On Trypsin, `N=C(N)NS(=O)(=O)Cc1ccccc1` came in with a Ki of 1350 nM. On Prothrombin, this compound had a pKi of 6.48.

`COC(=N)NS(=O)(=O)N(C)C` showed a Ki on Trypsin of 3300 nM. The pKi on Prothrombin is 5.86.

As to `Cc1ccc(S(=O)(=O)NC(=O)NCC(=O)N[C@@H](Cc2c[nH]cn2)C(=O)Nc2ccc(S(=O)(=O)NN=C(N)N)cc2)cc1`, on Trypsin, the Ki is 1555 nM. This compound had a pKi on Prothrombin of 7.82.

`COC(=N)NS(=O)(=O)c1ccc(NC(=O)[C@H](Cc2c[nH]cn2)NC(=O)CNC(=O)NS(=O)(=O)c2ccc(C)cc2)cc1` gave a Ki at Trypsin of 1550 nM. In addition, the pKi at Prothrombin is 7.68.

Compound `COC(=N)NS(=O)(=O)c1c(C)cc(C)cc1C` yielded a Ki at Trypsin of 1785 nM. This compound showed a pKi on Prothrombin of 6.46.

The compound `Cc1ccc(S(=O)(=O)NC(=O)N2CCC[C@H]2C(=O)NCC(=O)Nc2ccc(S(=O)(=O)N=C(N)N)cc2)cc1` had a Ki at Trypsin of 1400 nM. The pKi at Prothrombin was 7.68.

Consider `COc1ccc(S(=O)(=O)NN=C(N)N)cc1`, for which, at Trypsin, the inhibition constant (Ki) stood at 1275 nM. On Prothrombin, this compound gave a pKi of 6.64.

The values above are taken from ChEMBL document CHEMBL1132933, “Protease inhibitors: synthesis and QSAR study of novel classes of nonbasic thrombin inhibitors incorporating sulfonylguanidine and O-methylsulfonylisourea moieties at P1” (J Med Chem, 2000).
